This note sets out measurements from patent US20110152246A1, “NOVEL INHIBITORS OF HEPATITIS C VIRUS REPLICATION” (InterMune, Inc., priority 2009, published 2011).

The first experiment relates to Huh7 cells containing HCV replicons with an integrated luciferase reporter gene. Description: HCV Replicon Assay (luciferase reporter). The class given is cell-based. Particulars: Hepatitis C virus, Huh-7, 48 h, read-out: EC50 nM. The procedure: Huh7 cells containing HCV replicons with an integrated luciferase reporter gene are maintained at 37° C. in 5% CO2 in Dulbecco's modified Eagle's medium (DMEM; Mediatech, Herndon, Va.) containing 10% heat-inactivated fetal bovine serum (FBS; Mediatech, Herndon, Va.), 2 mM L-glutamine (Cambrex Bioscience, Walkersville, Md.), 1% non essential amino acids (Lonza, Walkersville, Md.), 50 IU/mL penicillin (Mediatech, Herndon, Va.), […] streptomycin (Mediatech, Herndon, Va.) and 0.5 mg/mL G418 (Promega, Madison, Wis.). Cells are sub-divided 1:3 or 4 every 2-3 days.
24 h prior to the assay, Huh7 cells containing sub-genomic HCV replicons are collected, counted, and plated in Nunclon 96-well tissue culture plates (ThermoFisher, Rochester, N.Y.) at 5000 cells/well in […] standard maintenance medium (above) and incubated in the conditions above. To initiate the assay, culture medium is removed, and replaced with […] maintenance media lacking G418. Test compounds are serially diluted three-fold in dimethyl sulfoxide (DMSO) in two duplicate rows for each EC50 determination. These compound solutions are diluted ten-fold in DMEM lacking serum and G418. […] of these compound solutions in media are added to duplicate tissue culture plates. The final volume is 100 μL with a DMSO concentration of 1%. Compound concentrations are adjusted to appropriately define a dose response curve. Typical dilution series range from […] to 1.69 nM final concentrations to 1 nM to 16.9 fM final. Plates are incubated at 37° C. for approximately 48 hr.
Following incubation, media is removed from one of the two duplicate plates and replicon-reporter luciferase activity is measured using a Bright-Glo luciferase assay kit (Promega, Madison, Wis.) according to manufacturer's instructions. Semi-log plots of luciferase activity versus the logarithm of compound concentration are fit to a 4-parameter logistic function using XLfit software (IDBS Inc., Guildford, UK) to determine EC50.
A general note: A replicon is a self-replicating genome or part of one, used to study replication in cells.
Consider `COC(=O)N[C@H](C(=O)N1CCC[C@H]1c1ncc(-c2ccc(-c3ccc(-c4cnc([C@@H]5CCCN5C(=O)Cc5ccccc5)[nH]4)c4ccccc34)cc2)[nH]1)C(C)C` [Compound 307], for which the 50% effective concentration (EC50) (usually the concentration giving half of the maximal effect) is less than 10 nM.
As to `COC(=O)N[C@H](C(=O)N1CCC[C@H]1C(=O)Nc1ccc(NC(=O)c2ccc(NC(=O)[C@@H]3CCCN3C(=O)[C@@H](NC(=O)OC)C(C)C)cc2)cc1)C(C)C` [Compound 102], the half-maximal effective concentration (EC50) was 10 to 100 nM.
Still for that read-out and setting: under `COC(=O)N[C@H](C(=O)N1CCC[C@H]1C(=O)Nc1ccc(C(=O)Nc2ccc(NC(=O)[C@@H]3CCCN3C(=O)Cc3ccccc3)cc2)cc1)C(C)C` [Compound 104] stands 10 to 100 nM.
As for `COC(=O)N[C@H](C(=O)N1CCC[C@H]1C(=O)Nc1ccc(NC(=O)c2ccc(NC(=O)[C@@H]3CCCN3C(=O)Cc3ccccc3)cc2)cc1)C(C)C` [Compound 103], the EC50 was 10 to 100 nM.
As to `O=C(Nc1ccc(-c2ccc3nc(NC(=O)[C@@H]4CCCN4C(=O)Cc4ccccc4)ccc3c2)cn1)[C@@H]1CCCN1C(=O)Cc1ccccc1` [Compound 216], the half-maximal effective concentration (EC50) was less than 10 nM.
On the same count and under the same terms, the same measure for `O=C(Cc1ccccc1)N1CCC[C@H]1c1ncc(-c2ccc(-c3ccc(-c4cnc([C@@H]5CCCN5C(=O)Cc5ccccc5)[nH]4)c4ccccc34)cc2)[nH]1` [Compound 302]: less than 10 nM.

The experiment is the same for the next values; noted with them: Hepatitis C virus, Huh-7; Huh7 HCV replicon cells, luciferase activity, approximately 48 hr incubation; read-out: EC50.
For the compound `O=C(Nc1ccc2cc(-c3ccc(NC(=O)[C@@H]4CCCN4C(=O)Cc4ccccc4)nc3)ccc2c1)[C@@H]1CCCN1C(=O)Cc1ccccc1` [Compound 206], the EC50 was less than 10 nM.
For the compound `COC(=O)N[C@H](C(=O)N1CCC[C@H]1c1nc(-c2ccc(-c3ccc(-c4c[nH]c([C@@H]5CCCN5C(=O)[C@@H](NC(=O)OC)C(C)C)n4)c4oc(C)nc34)cc2)c[nH]1)C(C)C` [Compound 323], the half-maximal effective concentration (EC50) was less than 10 nM.
Still for that read-out and setting: the same measure for `COC(=O)N[C@H](C(=O)N1CCC[C@H]1C(=O)Nc1ccc(-c2nc3ccc(NC(=O)[C@@H]4CCCN4C(=O)[C@@H](NC(=O)OC)C(C)C)cc3s2)cc1)C(C)C` [Compound 403]: less than 10 nM.
Same read-out and setting: the same measure for `COC(=O)NC(C(=O)N1CCC[C@H]1c1nc(-c2ccc(-c3ccc(-c4c[nH]c([C@@H]5CCCN5C(=O)[C@@H](NC(=O)OC)C(C)C)n4)c4c3CCCC4)cc2)c[nH]1)C(C)C` (some centres unmarked) [Compound 304]: less than 10 nM; for `COC(=O)N[C@H](C(=O)N1CCC[C@H]1c1nc(-c2ccc(-c3ccc(-c4c[nH]c([C@@H]5CCCN5C(=O)[C@@H](NC(=O)OC)C(C)C)n4)c4sccc34)cc2)c[nH]1)C(C)C` [Compound 311]: less than 10 nM; for `O=C(Nc1ccc(NC(=O)[C@@H]2CCCN2C(=O)Cc2ccccc2)cc1)c1ccc(NC(=O)[C@@H]2CCCN2C(=O)Cc2ccccc2)cc1` [Compound 101]: 10 to 100 nM.
The same measure, in the same setting: the same measure for `COC(=O)N[C@H](C(=O)N1CCC[C@H]1C(=O)Nc1ccc2cc(NC(=O)[C@@H]3CCCN3C(=O)Cc3ccccc3)ccc2c1)C(C)C` [Compound 205]: greater than 100 nM.
On to `COC(=O)N[C@H](C(=O)N1CCC[C@H]1C(=O)Nc1ccc(-c2ccc3nc(NC(=O)[C@@H]4CCCN4C(=O)[C@@H](NC(=O)OC)C(C)C)ccc3c2)cn1)C(C)C` [Compound 217], for which the concentration giving a half-maximal response (EC50) is less than 10 nM.
The same measure, in the same setting: the same measure for `COC(=O)N[C@H](C(=O)N1CCC[C@H]1C(=O)Nc1ccc2cc(-c3ccc(NC(=O)[C@@H]4CCCN4C(=O)[C@@H](NC(=O)OC)C(C)C)nc3)ccc2c1)C(C)C` [Compound 207]: less than 10 nM; for `O=C(Nc1ccc2cc(NC(=O)[C@@H]3CCCN3C(=O)Cc3ccccc3)ccc2c1)[C@@H]1CCCN1C(=O)Cc1ccccc1` [Compound 210]: greater than 100 nM.
Turning to `COC(=O)N[C@H](C(=O)N1CCC[C@H]1c1nc(-c2ccc(-c3ccc(-c4c[nH]c([C@@H]5CCCN5C(=O)[C@@H](NC(=O)OC)C(C)C)n4)c4c3ccn4C)cc2)c[nH]1)C(C)C` [Compound 327], the EC50 is less than 10 nM.
For `COC(=O)N[C@H](C(=O)N1CCC[C@H]1C(=O)Nc1ccc(-c2ccc3cc(NC(=O)[C@@H]4CCCN4C(=O)[C@@H](NC(=O)OC)C(C)C)ccc3c2)cc1)C(C)C` [Compound 201], the 50% effective concentration (EC50) was less than 10 nM.
As for `COC(=O)N[C@H](C(=O)N1CCC[C@H]1c1nc(-c2ccc(-c3ccc4cc(-c5c[nH]c([C@]6(C)CCCN6C(=O)[C@@H](NC(=O)OC)C(C)C)n5)ccc4c3)cc2)c[nH]1)C(C)C` [Compound 222], the EC50 was less than 10 nM.
On the same count and under the same terms, the same measure for `COC(=O)N[C@H](C(=O)N1CCC[C@H]1C(=O)Nc1ccc2cc(-c3ccc(NC(=O)[C@@H]4CCCN4C(=O)Cc4ccccc4)nc3)ccc2c1)C(C)C` [Compound 209]: less than 10 nM; for `COC(=O)N[C@H](C(=O)N1CCC[C@H]1c1nc(-c2ccc(-c3ccc(-c4c[nH]c([C@@H]5CCCN5C(=O)Cc5ccccc5)n4)cc3)c3ccccc23)c[nH]1)C(C)C` [Compound 308]: less than 10 nM.
On the same count and under the same terms, the same measure for `O=S(=O)(Cc1ccccc1)N1CCC[C@H]1c1ncc(-c2ccc(-c3ccc(-c4cnc([C@@H]5CCCN5S(=O)(=O)Cc5ccccc5)[nH]4)c4ccccc34)cc2)[nH]1` [Compound 326]: greater than 100 nM; for `COC(=O)N[C@H](C(=O)N1CCC[C@H]1C(=O)Nc1ccc2cc(NC(=O)[C@@H]3CCCN3C(=O)[C@@H](NC(=O)OC)C(C)C)ccc2c1)C(C)C` [Compound 204]: 10 to 100 nM.
Regarding `COC(=O)N[C@H](C(=O)N1CCC[C@H]1C(=O)OCC(=O)c1ccc(-c2ccc(C(=O)COC(=O)[C@@H]3CCCN3C(=O)[C@@H](NC(=O)OC)C(C)C)c3c2CCC3)cc1)C(C)C` [Compound 305], the EC50 was greater than 100 nM.
On to `COC(=O)N[C@H](C(=O)N1CCC[C@H]1C(=O)OCC(=O)c1ccc(-c2ccc(C(=O)COC(=O)[C@@H]3CCCN3C(=O)[C@@H](NC(=O)OC)C(C)C)c3c2CCCC3)cc1)C(C)C` [Compound 303], for which the concentration giving a half-maximal response (EC50) was in the range of 10 to 100 nM.
Still for that read-out and setting: under `COC(=O)N[C@H](C(=O)N1CCC[C@@]1(C)c1nc(-c2ccc(-c3ccc(-c4c[nH]c([C@]5(C)CCCN5C(=O)[C@@H](NC(=O)OC)C(C)C)n4)c4scnc34)cc2)c[nH]1)C(C)C` [Compound 329] stands less than 10 nM; under `COC(=O)N[C@H](C(=O)N1CCC[C@H]1c1nc(-c2ccc(-c3ccc(-c4c[nH]c([C@@H]5CCCN5C(=O)[C@@H](NC(=O)OC)C(C)C)n4)c4[nH]cc(C)c34)cc2)c[nH]1)C(C)C` [Compound 330], less than 10 nM; under `COC(=O)N[C@H](C(=O)N1CCC[C@H]1C(=O)Nc1ccc(-c2ccc3cc(NC(=O)[C@@H]4CCCN4C(=O)Cc4ccccc4)ccc3c2)cn1)C(C)C` [Compound 208], less than 10 nM.
As for `O=C(Nc1ccc(-c2ccc3cc(NC(=O)[C@@H]4CCCN4C(=O)Cc4ccccc4)ccc3c2)cc1)[C@@H]1CCCN1C(=O)Cc1ccccc1` [Compound 211], the concentration for a half-maximal effect (EC50) is less than 10 nM.
As to `COC(=O)N[C@H](C(=O)N1CCC[C@H]1C(=O)Nc1ncc(-c2ccc3nc(NC(=O)[C@@H]4CCCN4C(=O)Cc4ccccc4)ccc3c2)cn1)C(C)C` [Compound 214], the EC50 is 10 to 100 nM.
Same read-out and setting: under `COC(=O)N[C@H](C(=O)N1CCC[C@H]1c1nc(-c2ccc3cc(-c4ccc5[nH]c([C@@H]6CCCN6C(=O)[C@@H](NC(=O)OC)C(C)C)nc5c4)ccc3c2)c[nH]1)C(C)C` [Compound 402] stands less than 10 nM; under `COC(=O)N[C@H](C(=O)N1CCC[C@H]1c1ncc(-c2ccc(-c3ccc(-c4cnc([C@@H]5CCCN5C(=O)[C@@H](NC(=O)OC)C(C)C)[nH]4)c4c3OCCO4)cc2)[nH]1)C(C)C` [Compound 309], less than 10 nM.
Still for that read-out and setting: under `COC(=O)N[C@H](C(=O)N1CCC[C@H]1C(=O)Nc1ccc2cc(-c3cnc(NC(=O)[C@@H]4CCCN4C(=O)[C@@H](NC(=O)OC)C(C)C)nc3)ccc2c1)C(C)C` [Compound 221] stands less than 10 nM; under `COC(=O)N[C@H](C(=O)N1CCC[C@H]1c1nc(-c2ccc(-c3ccc(-c4c[nH]c([C@@H]5CCCN5C(=O)[C@@H](NC(=O)OC)C(C)C)n4)c4ncccc34)cc2)c[nH]1)C(C)C` [Compound 315], less than 10 nM.
Still for that read-out and setting: under `COC(=O)N[C@H](C(=O)N1CCC[C@H]1C(=O)Nc1ccc2cc(-c3ccc(NC(=O)[C@@H]4CCCN4C(=O)Cc4ccccc4)cc3)ccc2c1)C(C)C` [Compound 203] stands less than 10 nM.
As for `COC(=O)N[C@H](C(=O)N1CCC[C@@]1(C)c1nc(-c2ccc(-c3ccc(-c4c[nH]c([C@]5(C)CCCN5C(=O)[C@@H](NC(=O)OC)C(C)C)n4)c4c3OCO4)cc2)c[nH]1)C(C)C` [Compound 328], the EC50 was less than 10 nM.
Regarding `COC(=O)N[C@H](C(=O)N1CCC[C@H]1c1nc(-c2ccc(-c3ccc(-c4c[nH]c([C@@H]5CCCN5C(=O)[C@@H](NC(=O)OC)C(C)C)n4)c4cccnc34)cc2)c[nH]1)C(C)C` [Compound 314], the EC50 was less than 10 nM.
Still for that read-out and setting: the same measure for `COC(=O)N[C@H](C(=O)N1CCC[C@H]1c1nc(-c2ccc(-c3ccc(-c4c[nH]c([C@@H]5CCCN5C(=O)[C@@H](NC(=O)OC)C(C)C)n4)c4c3CCC4)cc2)c[nH]1)C(C)C` [Compound 306]: less than 10 nM.
